We go through 15 molecules from US20070129434A1, “Analgesics and methods of use” (priority 2002, published 2007).

Values joined by “and” are separate entries in the source; they are usually repeats but may differ in a detail not shown here. Equal values may be shown once. Where a name gives a salt, the structure may show the parent alone.

For data set [1], the target named is T1, α3β4 receptor agonist recognition sites (Rattus norvegicus, UniProt P04757+P12392).
T1 construct: expressed in transfected cells
T1 sequence (P04757 26-499): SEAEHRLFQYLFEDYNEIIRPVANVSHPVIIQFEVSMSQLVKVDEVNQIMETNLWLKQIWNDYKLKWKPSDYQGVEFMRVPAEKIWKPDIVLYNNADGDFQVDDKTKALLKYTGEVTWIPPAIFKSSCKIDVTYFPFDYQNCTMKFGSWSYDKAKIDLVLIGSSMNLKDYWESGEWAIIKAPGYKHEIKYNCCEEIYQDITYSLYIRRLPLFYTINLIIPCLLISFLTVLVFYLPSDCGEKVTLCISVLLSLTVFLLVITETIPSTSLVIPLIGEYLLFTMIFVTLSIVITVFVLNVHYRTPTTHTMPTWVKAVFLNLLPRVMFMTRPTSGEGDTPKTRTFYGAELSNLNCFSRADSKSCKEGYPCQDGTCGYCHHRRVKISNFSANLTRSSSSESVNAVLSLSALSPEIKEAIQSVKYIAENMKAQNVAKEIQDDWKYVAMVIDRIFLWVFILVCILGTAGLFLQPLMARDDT
T1 sequence (P12392 21-495): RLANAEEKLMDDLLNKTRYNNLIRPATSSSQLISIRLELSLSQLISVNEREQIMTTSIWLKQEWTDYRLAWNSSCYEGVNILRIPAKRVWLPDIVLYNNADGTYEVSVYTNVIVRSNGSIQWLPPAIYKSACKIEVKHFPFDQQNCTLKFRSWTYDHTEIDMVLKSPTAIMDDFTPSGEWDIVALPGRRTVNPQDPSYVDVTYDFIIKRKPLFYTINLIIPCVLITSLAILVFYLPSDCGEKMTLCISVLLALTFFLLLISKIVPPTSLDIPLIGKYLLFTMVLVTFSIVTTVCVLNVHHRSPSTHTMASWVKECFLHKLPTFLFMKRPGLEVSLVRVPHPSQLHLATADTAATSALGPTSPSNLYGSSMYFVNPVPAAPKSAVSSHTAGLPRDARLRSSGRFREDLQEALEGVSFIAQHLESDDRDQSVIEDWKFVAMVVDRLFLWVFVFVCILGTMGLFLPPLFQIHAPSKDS
Briefly: [3H]EB ligand binding in membrane homogenates from KXα3β4R2 cells. The source says:
Bound and free ligands were separated by vacuum filtration through Whatman GF/C filters treated with 0.5% polyethylenimine. […] Specific binding was defined as the difference between total binding and nonspecific binding.

The conditions of data set [2]: cited from earlier work.
A further data set addresses T2, rat α3β4 nAChRs (Rattus norvegicus, UniProt P04757+P12392).
T2 construct: expressed in transfected cells
In words: cell-based. The class given is cell-based. The conditions noted are these: for IC50: inhibition of 86Rb+ efflux stimulated by 100 μM nicotine, KXα3β4R2 cells, mean ± standard error; for type of receptor blockade: nicotine concentration-response curves in presence of antagonist. The protocol: Cell Culture. The cell line KXα3β4R2 was established previously by stably cotransfecting human embryonic kidney-293 cells with the rat α3 and β4 nAChR subunits genes (Xiao et al., 1998). Cells were maintained in minimum essential medium supplemented with 10% fetal bovine serum, 100 units/ml penicillin G, […], and 0.7 mg/ml of geneticin (G418) at 37° C. with 5% CO2 in a humidified incubator.
^86Rb^+ Efflux Assay. Function of nAChRs expressed in the transfected cells was measured using a ^86Rb^+ efflux assay as described previously (Xiao et al., 1998). In brief, cells in the selection growth medium were plated into 24-well plates coated with poly(D-lysine). The plated cells were grown at 37° C. for 18 to 24 h to reach 70 to 95% confluence. The cells were then incubated in growth medium (0.5 ml/well) containing ^86Rb^+ (2 μCi/ml) for 4 h at 37° C. The loading mixture was then aspirated and the cells were washed three times with buffer (15 mM HEPES, 140 mM NaCl, 2 mM KCl, 1 mM MgSO4, 1.8 mM CaCl, 11 mM glucose, pH 7.4; 1 ml/well) for 30 s, 5 min, and 30 s, respectively. One milliliter of buffer, with or without compounds to be tested, was then added to each well. After incubation for 2 min, the assay buffer was collected for measurements of ^86Rb^+ released from the cells. Cells were then lysed by adding 1 ml of 100 mM NaOH to each well, and the lysate was collected for determination of the amount of ^86Rb^+ that was in the cells at the end of the efflux assay. Radioactivity of assay samples and lysates was measured by liquid scintillation counting. Total loading (cpm) was calculated as the sum of the assay sample and the lysate of each well. The amount of ^86Rb^+ efflux was expressed as a percentage of ^86Rb^+ loaded.
Experiments with antagonists were done in two different ways. […] EC50, Emax, and IC50, values were determined by nonlinear least-squares regression analyses (GraphPad, San Diego, Calif.).

Data set [3] deals with glutamate stimulated catecholamine release. The class given is cell-based, rat. The note with it: 1 mM glutamate for 2 min, hippocampus and striatum slices; for block of glutamate stimulated catecholamine release: 10 μM. The protocol: The hippocampus and striatum are both important and well-studied anatomical areas of the brain. The hippocampus is associated with learning and memory functions while the striatus is linked to motor function. Slices were loaded with [^3H]norepinephrine or [^3H]dopamine and then exposed to 1 mM glutamate for 2 min in the absence or presence of MK-801, d-methadone or (+)-EDDP. The baseline release was measured in the absence of glutamate.

Data set [4] deals with morphine, methamphetamine, and nicotine self-administration. The conditions noted are these: rats, 5-30 mg/kg; cited from earlier work.
A further data set concerns Swiss-Webster mice. Briefly: Warm-water tail-withdrawal nociception assay. It counts as in vivo. The note with it: either enantiomer, 40 μg intracerebrally. As to the method:
To confirm their suspicions that the compounds of the present invention, do in fact have an analgesic effect, the inventors experimented with mice. […] Each enantiomer of EDDP, in 40 μg doses, was administered intracerebrally to the mice. The animals were monitored for baseline sensitivity using the warm-water tail-withdrawal nociception assay and the latency to tail withdrawal was monitored as a measurement of analgesia. […] Thus, it is clear that the d-methadone metabolite EDDP has significant analgesic effect. Likewise, the metabolite EMDP and the structural analogs of both EDDP and EMDP are expected to do the same.

[5] abbreviates: blocking nicotine-stimulated 86Rb+ efflux.

T2 sequence (P04757 26-499): as the sequence (P04757 26-499) above
T2 sequence (P12392 21-495): as the sequence (P12392 21-495) above

Turning to `CCC(=O)C(CC(C)N(C)C)(c1ccccc1)c1ccccc1` (racemic) [methadone, (O)-Methadone hydrochloride], the “competition for [3H]EB binding sites (in words)” value in data set [1] was “does not compete effectively”. Moreover, in data set [2] (patients taking methadone chronically), the steady-state plasma concentration result is recorded as “exceed 1 μM”. In addition, the “plasma concentration following a single dose” value in data set [2] (single dose of methadone) is recorded as “approximately 0.25 μM”. For the same molecule, the “block of nicotine-stimulated 86Rb+ efflux” value at rat α3β4 nAChRs (100 μM nicotine plus 200 μM methadone) is “completely blocked”. In addition, at rat α3β4 nAChRs, the IC50 (commonly the concentration that inhibits the measured activity by half) is about 2000 nM and the “type of receptor blockade” value was “noncompetitive mechanism”. On rat α3β4 nAChRs (methadone alone at concentrations up to 1 mM), the “increase of 86Rb+ efflux (agonist effect)” value is on record as “did not increase”.
The molecule `CCC1=N[C@H](C)CC1(c1ccccc1)c1ccccc1` [(+)-EMDP, R-(+)-2-ethyl-5-methyl-3,3-diphenyl-1-pyrroline hydrochloride] gave an IC50 on rat α3β4 nAChRs of 5800 ± 1000 nM.
`CCC(=O)C(C[C@H](C)N(C)C)(c1ccccc1)c1ccccc1.Cl` [(+)-Methadone, S-(+)-methadone hydrochloride]: the “block of glutamate stimulated catecholamine release” value in data set [3] is recorded as “partial block”. Besides, it took 2500 ± 200 nM to reach half-maximal inhibition against rat α3β4 nAChRs (IC50).
In turn, `CCC1=[N+](C)[C@@H](C)CC1(c1ccccc1)c1ccccc1` [(−)-EDDP, S-(−)-2-ethyl-1,5-dimethyl-3,3-diphenylpyrrolinium perchlorate] yielded an IC50 against rat α3β4 nAChRs of 400 ± 100 nM.
The same measure, in the same setting: then `CCC1=N[C@@H](C)CC1(c1ccccc1)c1ccccc1` [(−)-EMDP, S-(−)-2-ethyl-5-methyl-3,3-diphenyl-1-pyrroline hydrochloride], with 6300 ± 700 nM.
With `CCC(=O)C(C[C@@H](C)N(C)C)(c1ccccc1)c1ccccc1` [(−)-Methadone, R-(−)-methadone hydrochloride], at rat α3β4 nAChRs (hydrochloride), the IC50 was 1900 nM and 2000 nM.
Consider `COc1ccc2c(c1)[C@]13CCCC[C@@H]1[C@H](C2)N(C)CC3` [Dextromethorphan], for which the “self-administration of morphine, methamphetamine, and nicotine” value in data set [4] is “decrease”. Also, 8900 ± 1100 nM corresponded to half-maximal inhibition against rat α3β4 nAChRs (IC50).
Molecule `CN1CC[C@@]23CCCC[C@@H]2[C@@H]1Cc1ccc(O)cc13` [Dextrorphan] returned an IC50 on rat α3β4 nAChRs of 29600 ± 5700 nM.
For the molecule `C/C=C1/N(C)C(C)CC1(c1ccccc1)c1ccccc1` (stereo not shown) [EDDP], the tail withdrawal latency result in the data set on Swiss-Webster mice is “increased”. Besides, in data set [2] (following administration of methadone), the peak plasma concentration is about 0.2 µM. At rat α3β4 nAChRs (setting [5]), the “potency relative to mecamylamine” value was “twice as potent” and the “potency relative to methadone” value is on record as “about 5 times more potent”. For the same molecule, the IC50 against rat α3β4 nAChRs is about 400 nM.
As for `CC[C@H](OC(C)=O)C(C[C@H](C)N(C)C)(c1ccccc1)c1ccccc1.Cl` [LAAM, (−)-α-acetylmethadol hydrochloride], at rat α3β4 nAChRs, the IC50 was 2500 ± 400 nM and the “type of receptor blockade” value is “noncompetitive blockers”.
With `C[C@]12N[C@H](Cc3ccccc31)c1ccccc12` [MK-801], in data set [3], the “block of glutamate stimulated catecholamine release” value is reported as “partial block”. The IC50 on rat α3β4 nAChRs came out at 26600 ± 9600 nM.
As for `CCC(=O)O[C@](Cc1ccccc1)(c1ccccc1)[C@H](C)CNC` [Norpropoxyphene, (+)-α-N-norpropoxyphene maleate], at rat α3β4 nAChRs, 1800 ± 100 nM corresponded to half-maximal inhibition (IC50).
Same read-out and setting: the value for `CCC(=O)O[C@](Cc1ccccc1)(c1ccccc1)[C@H](C)CN(C)C` [Propoxyphene, (+)-α-propoxyphene hydrochloride] was 2700 ± 400 nM.
`CN1CCCC1c1cccnc1` (stereo not shown) [nicotine]: the “stimulation of 86Rb+ efflux over basal levels” value on rat α3β4 nAChRs is reported as “approximately 10 fold”.
Take “R-(+)-2-ethyl-1,5-dimethyl-3,3-diphenylpyrrolinium perchlorate [(+)-EDDP]”: in data set [3] (until 100 μM), the “effect on glutamate stimulated catecholamine release” value is “no effect”. Further, at rat α3β4 nAChRs, the IC50 worked out at 400 ± 200 nM and the “type of receptor blockade” value is reported as “noncompetitive blockers”.
